# From US9783535B2 (priority 2012, dated 2017)
# What was measured:
# [1] = target: T1, kappa opioid receptor (kOR) (Homo sapiens, UniProt P41145); experiment: Kappa opioid receptor binding; conditions: read-out: Affinity at kappa opioid receptor
# T1 construct: expressed in transfected cells; host or cells: CHO or HEK293 (membranes)
# Protocol: Established radioligand binding methods are used to evaluate the ability of the compounds to block reuptake of scrotonin and dopamine in membrane preparations of synaptosomes. Equilibrium binding affinity values is determined for each compound at opioid receptors (μ and κ subtypes) and biogenic amine transporters (DAT and SERT). Where possible, binding experiments utilize membranes derived from CHO or HEK293 cells engineered to overexpress the human form of the receptor or transporter of interest. Radiolabeling of opioid receptors, and biogenic amine transporters utilizes conventional radioligands, buffers and incubation conditions according to published assays.
# Test compounds, reference compounds and the radioligand (Kd value) are added to binding buffer. Assays are run with test or reference compound over a range of concentration (0.0001-10 uM) in triplicate using a 96-well sample plate containing radioligands specific for the target receptor or transporter. […] Bound radioactivity is counted in a Microbeta scintillation counter. Total bound radioactivity is estimated from triplicate wells containing no test or reference compound, together with nonspecific binding and filter blanks. The average bound radioactivity in the presence of the test compounds is expressed % inhibition=100%−% radioactivity bound. […]
# [2] = test system: panel of over 50 receptors, transporters, ion channels, second messengers, growth factor receptors and enzymes; experiment: Binding panel at physiologically relevant concentrations
# Source text: The association between cigarette smoking and the presence and severity of suicidal behavior across major psychiatric disorders may be related to lower brain serotonin function in smokers with depression).
# [3] = CNS penetration across the blood brain barrier; parameters: species or system mice; conditions: mouse, in vivo
# Protocol: Mice are dosed with compounds. Brain to blood ratios are determined by HPLC and LC/MS/MS analysis following oral administration of the test compounds in mice.
# a3b4 nAChRs = a3b4 nAChRs (Homo sapiens, UniProt P30926+P32297); experiment: Relative potency at a3b4 nAChRs, epibatidine-induced calcium response; type: cell-based
# Sequence of a3b4 nAChRs (P32297 32-505): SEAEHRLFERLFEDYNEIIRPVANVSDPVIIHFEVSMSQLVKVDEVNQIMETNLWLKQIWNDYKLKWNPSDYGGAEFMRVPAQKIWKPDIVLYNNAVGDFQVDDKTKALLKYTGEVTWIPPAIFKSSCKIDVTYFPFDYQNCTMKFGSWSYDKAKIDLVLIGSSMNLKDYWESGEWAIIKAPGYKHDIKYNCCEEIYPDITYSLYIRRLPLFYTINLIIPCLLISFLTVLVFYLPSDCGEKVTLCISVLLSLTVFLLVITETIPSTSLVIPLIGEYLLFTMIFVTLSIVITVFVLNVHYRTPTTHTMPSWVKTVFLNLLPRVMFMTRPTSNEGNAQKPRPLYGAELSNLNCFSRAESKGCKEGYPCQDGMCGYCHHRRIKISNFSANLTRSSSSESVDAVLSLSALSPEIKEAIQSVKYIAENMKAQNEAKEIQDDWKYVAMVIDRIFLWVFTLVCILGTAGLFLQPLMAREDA
# Sequence of a3b4 nAChRs (P30926 22-498): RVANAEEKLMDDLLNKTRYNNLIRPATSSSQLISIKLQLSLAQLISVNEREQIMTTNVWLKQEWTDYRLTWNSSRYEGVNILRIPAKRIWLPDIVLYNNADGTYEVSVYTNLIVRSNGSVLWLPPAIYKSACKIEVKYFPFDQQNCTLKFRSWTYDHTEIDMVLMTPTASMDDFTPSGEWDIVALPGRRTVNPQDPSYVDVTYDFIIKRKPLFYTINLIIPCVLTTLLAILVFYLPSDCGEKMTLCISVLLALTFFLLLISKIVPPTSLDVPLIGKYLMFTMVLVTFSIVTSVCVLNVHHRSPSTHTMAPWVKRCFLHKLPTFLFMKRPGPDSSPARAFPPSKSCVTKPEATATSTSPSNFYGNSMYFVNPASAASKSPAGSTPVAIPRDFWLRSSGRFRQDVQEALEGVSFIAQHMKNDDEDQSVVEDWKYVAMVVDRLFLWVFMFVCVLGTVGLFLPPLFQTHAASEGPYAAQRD
# Protocol: The HEK293 (a3b4, a4b2 and a7) and SH-SY5Y cell lines (a3b4) expressing nAChRs are used. Validated assays optimized with respect to sensitivity, dynamic range, signal intensity and stability for chemical probe validation and SAR refinement are used.
# Nicotinic functional assays are performed using the Molecular Devices FLIPR® Calcium 5 Assay Kit. HEK293 cells overexpressing α3β4, α4β2 or α7 (50,000 cells per well in 100 μl growth media) and are plated in clear bottom black walled 96-well microplates and incubated for 24-48 hours at 37° C., 5% CO2 until a 80-90% confluent monolayer is formed. On the day of the assay, 100 μl of Calcium 5 Dye is added to each well. Following addition of dye, cells are incubated at 25° C. for 60 minutes. Following dye loading, 50 μl of a 5× solution of reference or test compound of appropriate concentration range (0.01-30 μM), prepared in 20 mM HEPES pH 7.4 in HBSS, is added to each well. Plates are then transferred to the Molecular Devices Flexstation® which transfers 50 μL of a 5× solution (500 nM) of epibatine to each well to initiate the Ca+2 flux. Additional wells (in quadruplicate) are prepared with no added test or reference ligand for measurement of 100% flux. The RFU (relative fluorescence units) in the presence of the test or reference compounds is then expressed on the percent scale. The percent inhibition of epibatidine induced Ca^+2 flux is calculated as follows: % inhibition=100%−% RFU (relative fluorescence units). The IC50 values for reference and test compounds are obtained by fitting normalized RFU data using Graphpad Prism software.
# T1 sequence (P41145 whole entry): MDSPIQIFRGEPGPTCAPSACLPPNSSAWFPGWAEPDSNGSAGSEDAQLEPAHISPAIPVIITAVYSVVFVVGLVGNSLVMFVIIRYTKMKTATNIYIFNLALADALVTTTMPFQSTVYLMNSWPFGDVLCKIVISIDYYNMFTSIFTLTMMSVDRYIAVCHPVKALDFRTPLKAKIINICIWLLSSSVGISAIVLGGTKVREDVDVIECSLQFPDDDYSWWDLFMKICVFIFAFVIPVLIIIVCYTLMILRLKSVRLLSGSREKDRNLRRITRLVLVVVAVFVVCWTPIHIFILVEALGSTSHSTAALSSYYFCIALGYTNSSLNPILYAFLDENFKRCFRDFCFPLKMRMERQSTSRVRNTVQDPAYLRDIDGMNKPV
Compound,Ki [1] [nM],Targets bound in the panel [2],Crossing of the BBB and brain concentration [3],"IC50 of the reference 18-MC behind the ratio (a3b4 nAChRs; a3b4 nAChRs, bracketed value in Table 4) [nM]","Ratio from 18-MC (a3b4 nAChRs; relative potency at a3b4 nAChRs, 18-MC = 1)",Potency as inhibitor of the epibatidine-induced calcium response compared with 18-MC and noribogaine (a3b4 nAChRs; a3b4 nAChRs)
"CC[C@H]1CC2C[C@H]3c4[nH]c5ccc(O)cc5c4CCN(C2)C13 [Noribogaine, 12-hydroxyibogamine]",1000,"only bound to SERT, DAT, mu and kappa opioid receptors",cross the BBB and reach micromolar concentrations in brain,–,–,–
"COCC[C@H]1CC2CN3CCc4c([nH]c5ccccc45)[C@](C(=O)OC)(C2)[C@H]13 [Compound 18-MC, 18-methoxycoronaridine]",–,–,cross the BBB and reach micromolar concentrations in brain,4000,1,–
Ibogaine,–,–,–,–,–,more potent inhibitors than 18-MC (18-methoxycoronaridine) and noribogaine
